Laboratory results as given in patent US9801880B2, “Use of kinase inhibitors” (BerGenBio AS, priority 2013, dated 2017).

How the values were obtained:
[1] = tested on: Ba/F3 cells (WT, FLT3 WT, FLT3-ITD, D835Y); test: Annexin V-PI apoptosis/cell death assay, four Ba/F3 cell lines; type: cell-based, Murine
From the text: Murine pro-B lymphocyte line Ba/F3 wild type (Ba/F3 WT), and Ba/F3 lines stably transduced with expression vectors that encoded wild-type human FLT3 (Ba/F3 FLT3 WT cells) or human FLT3 containing an ITD mutation (Ba/F3-ITD cells) or D835Y (Ba/F3 D835Y cells) point mutations, which lead to constitutively functional activation of the protein, were obtained from Bjørn Tore Gjertsen (Department of Clinical Science, Hematology Section, University of Bergen, Bergen, Norway). Ba/F3 WT, Ba/F3 FLT3 WT and Ba/F3 835Y cells were maintained in RPMI-1640 medium, containing 10% fetal calf serum (FCS, HyClone, Logan, UT), 2 mM L-glutamine and 50 U/mL penicillin-streptomycin (Sigma-Aldrich, Inc, St Louis, Mo., USA), and 10% WEHI-3B conditioned medium as a source of murine interleukin-3 (mIL-3). […]
Quantification of apoptotic and necrotic cells was determined by measuring externalization of phosphatidylserine with annexin V, conjugated to Alexa® Fluor 647 (Invitrogen, Molecular Probes, OR, USA) and using propidium iodide (PI; Sigma-Aldrich) as a dead-cell counterstain. […] After drug treatment cells were stained according the manufacturer's protocol, and subsequently analysed on an Accuri C6 flow cytometer (Becton Dickinson Immunocytometry Systems, San Jose, Calif., USA). […] The percent viable cells are expressed as percentage of untreated cells, performed in a single experiment.

Abl(H396P) [2] = biological target: T1, Abl(H396P) (Homo sapiens, UniProt P00519, H396P); test: KinaseProfiler kinase activity assay; type: biochemical; design: purchased EMD Millipore Corp. (KinaseProfiler service); conditions: ATP at Km
From the text: (§1) Detailed assay methodologies can be found in the relevant references cited herein, or in the KinaseProfiler Service Assay Protocols (v54, 2011) available from EMD Millipore (www.emdmillipore.com), or from the KinomeScan website (www.kinomescan.com), as appropriate. (For a more detailed description of KINOMEscan's assay technology, see: Fabian et al. A small molecule-kinase interaction map for clinical kinase inhibitors. Nat. Biotechnol. 23, 329-336 (2005)). A summary is provided below.
(§2) KinaseProfiler™ assays (EMD Millipore Corp. Billerica, Mass., USA) are […] with purified or partially-purified human kinases. Most of the KinaseProfiler™ assays are conducted in 20 mM MOPS, 1 mM EDTA, 0.01% Brij-35, 5% Glycerol, 0.1% b-mercaptoethanol, 1 mg/mL BSA. The assay involves the transfer of ^32P from γ-^32P-ATP to the target peptide, followed by washing and trapping of the labeled peptide on a filter. The concentration of γ-^32P-ATP used was at the established Km for ATP.

Tyro3 = Tyro3 (Homo sapiens, UniProt Q06418); test: KinaseProfiler kinase activity assay; type: biochemical; design: purchased EMD Millipore Corp. (KinaseProfiler service); conditions: ATP at Km
From the text: as §1, §2

Abl(Q252H) = Abl(Q252H) (Homo sapiens, UniProt P00519, Q252H); test: KinaseProfiler kinase activity assay; type: biochemical; design: purchased EMD Millipore Corp. (KinaseProfiler service); conditions: ATP at Km
From the text: as §1, §2

Abl (T315I) [3] = biological target: T2, Abl (T315I) (Homo sapiens, UniProt P00519, T315I); test: KinaseProfiler kinase activity assay; type: biochemical; design: purchased EMD Millipore Corp. (KinaseProfiler service); conditions: ATP at Km
From the text: as §1, §2

Flt4 = Flt4 (Homo sapiens, UniProt P35916); test: KinomeScan competition binding assay; design: purchased DiscoveRx Corporation (KinomeScan service)
From the text: as §1
(§3) KinomeScan™ assays (DiscoveRx Corporation, San Diego, Calif., USA) are active-site-directed competition binding assays. […] The amount of kinase captured in test versus control samples is determined by using a qPCR method that detects the associated DNA label on each kinase molecule. Dissociation constants (Kd) for test compound-kinase interactions are calculated by measuring the amount of kinase captured on the solid support as a function of the test compound concentration.

Abl(H396P) [4] = biological target: T1, Abl(H396P); test: KinomeScan competition binding assay; design: purchased DiscoveRx Corporation (KinomeScan service)
From the text: as §1, §3

Stk10 = Stk10 (Homo sapiens, UniProt O94804); test: KinomeScan competition binding assay; design: purchased DiscoveRx Corporation (KinomeScan service)
From the text: as §1, §3

c-Kit (D816H) = c-Kit (D816H) (Homo sapiens, UniProt P10721, D816H); test: KinomeScan competition binding assay; design: purchased DiscoveRx Corporation (KinomeScan service)
From the text: as §1, §3

Abl (T315I) [5] = biological target: T2, Abl (T315I); test: KinomeScan competition binding assay; design: purchased DiscoveRx Corporation (KinomeScan service)
From the text: as §1, §3

Flt1 = Flt1 (Homo sapiens, UniProt P17948); test: KinomeScan competition binding assay; design: purchased DiscoveRx Corporation (KinomeScan service)
From the text: as §1, §3

Ret (V804M) = Ret (V804M) (Homo sapiens, UniProt P07949, V804M); test: KinomeScan competition binding assay; design: purchased DiscoveRx Corporation (KinomeScan service)
From the text: as §1, §3

Yes = Yes (Homo sapiens, UniProt P07947); test: KinomeScan competition binding assay; design: purchased DiscoveRx Corporation (KinomeScan service)
From the text: as §1, §3

c-Kit = c-Kit (Homo sapiens, UniProt P10721); test: biochemical
From the text: as §1, §3

Abl = Abl (Homo sapiens, UniProt P00519); test: biochemical
From the text: as §1, §3

Chain of Yes (P07947 whole entry): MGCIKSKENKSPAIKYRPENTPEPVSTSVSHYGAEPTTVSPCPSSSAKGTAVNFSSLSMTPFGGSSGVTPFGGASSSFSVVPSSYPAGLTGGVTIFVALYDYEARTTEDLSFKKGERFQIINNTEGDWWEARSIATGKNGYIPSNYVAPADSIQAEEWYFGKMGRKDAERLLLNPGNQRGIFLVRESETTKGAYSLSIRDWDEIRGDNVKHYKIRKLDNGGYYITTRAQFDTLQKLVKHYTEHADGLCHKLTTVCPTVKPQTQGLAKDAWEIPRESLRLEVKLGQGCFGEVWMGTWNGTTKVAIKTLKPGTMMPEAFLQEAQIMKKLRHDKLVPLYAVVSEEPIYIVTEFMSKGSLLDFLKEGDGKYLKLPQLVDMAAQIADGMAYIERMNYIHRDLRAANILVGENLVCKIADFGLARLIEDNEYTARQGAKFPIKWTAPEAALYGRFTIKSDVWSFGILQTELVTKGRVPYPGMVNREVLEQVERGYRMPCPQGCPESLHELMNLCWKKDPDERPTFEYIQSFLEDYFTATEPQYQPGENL
Chain of c-Kit (D816H) (P10721 26-976 D816H): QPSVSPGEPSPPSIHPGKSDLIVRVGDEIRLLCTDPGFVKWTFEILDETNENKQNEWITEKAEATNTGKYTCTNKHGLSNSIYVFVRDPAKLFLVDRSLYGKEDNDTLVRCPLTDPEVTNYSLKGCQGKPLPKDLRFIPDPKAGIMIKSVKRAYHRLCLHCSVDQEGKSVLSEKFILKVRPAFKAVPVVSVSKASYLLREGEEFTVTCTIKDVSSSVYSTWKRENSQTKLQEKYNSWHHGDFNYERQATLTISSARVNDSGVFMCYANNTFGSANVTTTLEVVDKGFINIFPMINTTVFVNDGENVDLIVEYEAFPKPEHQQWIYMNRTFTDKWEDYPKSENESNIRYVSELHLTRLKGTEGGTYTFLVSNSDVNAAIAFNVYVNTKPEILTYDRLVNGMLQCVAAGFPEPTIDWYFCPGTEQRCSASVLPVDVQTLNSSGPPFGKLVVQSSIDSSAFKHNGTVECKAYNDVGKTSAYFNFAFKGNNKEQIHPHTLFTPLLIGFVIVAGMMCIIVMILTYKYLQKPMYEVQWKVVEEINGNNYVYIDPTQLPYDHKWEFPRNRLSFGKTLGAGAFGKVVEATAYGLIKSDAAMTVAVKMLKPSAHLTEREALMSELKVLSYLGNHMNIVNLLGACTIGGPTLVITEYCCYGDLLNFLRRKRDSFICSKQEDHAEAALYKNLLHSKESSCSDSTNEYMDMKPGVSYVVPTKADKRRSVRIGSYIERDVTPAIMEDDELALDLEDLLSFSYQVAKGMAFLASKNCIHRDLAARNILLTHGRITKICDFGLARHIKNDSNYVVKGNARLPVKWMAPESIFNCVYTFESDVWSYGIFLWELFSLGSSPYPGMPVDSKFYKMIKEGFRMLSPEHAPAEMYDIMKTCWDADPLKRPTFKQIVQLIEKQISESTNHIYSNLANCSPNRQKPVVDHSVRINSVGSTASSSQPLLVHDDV
Chain of Ret (V804M) (P07949 29-1114 V804M): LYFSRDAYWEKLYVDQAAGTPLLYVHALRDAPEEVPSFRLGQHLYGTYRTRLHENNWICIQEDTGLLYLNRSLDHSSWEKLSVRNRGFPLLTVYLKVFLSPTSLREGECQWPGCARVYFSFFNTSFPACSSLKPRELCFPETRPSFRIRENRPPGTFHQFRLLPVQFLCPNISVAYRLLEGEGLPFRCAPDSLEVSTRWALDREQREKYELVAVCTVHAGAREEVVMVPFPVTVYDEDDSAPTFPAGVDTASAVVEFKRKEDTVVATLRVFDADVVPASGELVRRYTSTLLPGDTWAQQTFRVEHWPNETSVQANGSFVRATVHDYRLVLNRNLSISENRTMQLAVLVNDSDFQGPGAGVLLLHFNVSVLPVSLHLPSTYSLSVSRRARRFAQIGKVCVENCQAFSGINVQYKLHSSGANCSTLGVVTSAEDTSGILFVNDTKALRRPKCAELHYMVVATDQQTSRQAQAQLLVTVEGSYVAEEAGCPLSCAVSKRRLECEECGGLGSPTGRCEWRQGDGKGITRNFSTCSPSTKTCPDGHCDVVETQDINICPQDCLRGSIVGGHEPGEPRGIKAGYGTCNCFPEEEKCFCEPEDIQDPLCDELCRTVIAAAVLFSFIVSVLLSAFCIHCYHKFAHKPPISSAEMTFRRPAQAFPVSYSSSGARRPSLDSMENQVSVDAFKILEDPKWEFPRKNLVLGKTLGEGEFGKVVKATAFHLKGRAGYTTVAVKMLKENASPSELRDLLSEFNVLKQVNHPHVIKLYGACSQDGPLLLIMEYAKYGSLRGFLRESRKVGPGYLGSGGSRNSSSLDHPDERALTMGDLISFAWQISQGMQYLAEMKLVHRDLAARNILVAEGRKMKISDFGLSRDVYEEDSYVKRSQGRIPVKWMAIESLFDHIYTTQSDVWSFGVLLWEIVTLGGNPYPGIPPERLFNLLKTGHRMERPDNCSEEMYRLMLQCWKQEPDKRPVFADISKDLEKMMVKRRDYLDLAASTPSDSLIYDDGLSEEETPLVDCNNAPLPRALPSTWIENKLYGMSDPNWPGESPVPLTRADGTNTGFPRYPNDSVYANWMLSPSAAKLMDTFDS
Chain of Stk10 (O94804 whole entry): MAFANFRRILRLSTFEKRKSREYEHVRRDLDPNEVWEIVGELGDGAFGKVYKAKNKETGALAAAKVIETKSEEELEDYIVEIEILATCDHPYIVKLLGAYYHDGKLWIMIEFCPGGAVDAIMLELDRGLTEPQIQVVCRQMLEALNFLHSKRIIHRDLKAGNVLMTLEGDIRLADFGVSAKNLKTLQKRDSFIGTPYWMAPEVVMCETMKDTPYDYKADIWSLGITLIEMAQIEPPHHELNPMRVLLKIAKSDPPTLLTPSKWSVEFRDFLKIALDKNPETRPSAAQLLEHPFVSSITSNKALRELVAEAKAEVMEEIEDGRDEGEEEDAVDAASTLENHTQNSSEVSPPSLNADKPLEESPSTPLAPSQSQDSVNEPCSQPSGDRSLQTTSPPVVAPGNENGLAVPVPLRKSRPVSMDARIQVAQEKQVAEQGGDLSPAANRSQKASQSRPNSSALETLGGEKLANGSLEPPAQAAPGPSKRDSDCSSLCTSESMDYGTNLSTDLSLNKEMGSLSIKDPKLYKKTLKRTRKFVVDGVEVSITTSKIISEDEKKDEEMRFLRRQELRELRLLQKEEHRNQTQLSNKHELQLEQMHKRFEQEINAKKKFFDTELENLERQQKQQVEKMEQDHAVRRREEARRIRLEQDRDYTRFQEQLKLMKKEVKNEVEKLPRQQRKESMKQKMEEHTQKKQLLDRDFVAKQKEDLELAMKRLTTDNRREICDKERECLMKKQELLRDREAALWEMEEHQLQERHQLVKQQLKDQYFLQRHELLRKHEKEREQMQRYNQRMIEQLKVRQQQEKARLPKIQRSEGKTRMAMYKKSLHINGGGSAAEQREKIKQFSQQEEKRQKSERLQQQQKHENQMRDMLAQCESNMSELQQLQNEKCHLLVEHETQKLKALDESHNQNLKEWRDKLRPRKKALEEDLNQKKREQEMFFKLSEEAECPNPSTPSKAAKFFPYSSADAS
Chain of Flt4 (P35916 25-1363): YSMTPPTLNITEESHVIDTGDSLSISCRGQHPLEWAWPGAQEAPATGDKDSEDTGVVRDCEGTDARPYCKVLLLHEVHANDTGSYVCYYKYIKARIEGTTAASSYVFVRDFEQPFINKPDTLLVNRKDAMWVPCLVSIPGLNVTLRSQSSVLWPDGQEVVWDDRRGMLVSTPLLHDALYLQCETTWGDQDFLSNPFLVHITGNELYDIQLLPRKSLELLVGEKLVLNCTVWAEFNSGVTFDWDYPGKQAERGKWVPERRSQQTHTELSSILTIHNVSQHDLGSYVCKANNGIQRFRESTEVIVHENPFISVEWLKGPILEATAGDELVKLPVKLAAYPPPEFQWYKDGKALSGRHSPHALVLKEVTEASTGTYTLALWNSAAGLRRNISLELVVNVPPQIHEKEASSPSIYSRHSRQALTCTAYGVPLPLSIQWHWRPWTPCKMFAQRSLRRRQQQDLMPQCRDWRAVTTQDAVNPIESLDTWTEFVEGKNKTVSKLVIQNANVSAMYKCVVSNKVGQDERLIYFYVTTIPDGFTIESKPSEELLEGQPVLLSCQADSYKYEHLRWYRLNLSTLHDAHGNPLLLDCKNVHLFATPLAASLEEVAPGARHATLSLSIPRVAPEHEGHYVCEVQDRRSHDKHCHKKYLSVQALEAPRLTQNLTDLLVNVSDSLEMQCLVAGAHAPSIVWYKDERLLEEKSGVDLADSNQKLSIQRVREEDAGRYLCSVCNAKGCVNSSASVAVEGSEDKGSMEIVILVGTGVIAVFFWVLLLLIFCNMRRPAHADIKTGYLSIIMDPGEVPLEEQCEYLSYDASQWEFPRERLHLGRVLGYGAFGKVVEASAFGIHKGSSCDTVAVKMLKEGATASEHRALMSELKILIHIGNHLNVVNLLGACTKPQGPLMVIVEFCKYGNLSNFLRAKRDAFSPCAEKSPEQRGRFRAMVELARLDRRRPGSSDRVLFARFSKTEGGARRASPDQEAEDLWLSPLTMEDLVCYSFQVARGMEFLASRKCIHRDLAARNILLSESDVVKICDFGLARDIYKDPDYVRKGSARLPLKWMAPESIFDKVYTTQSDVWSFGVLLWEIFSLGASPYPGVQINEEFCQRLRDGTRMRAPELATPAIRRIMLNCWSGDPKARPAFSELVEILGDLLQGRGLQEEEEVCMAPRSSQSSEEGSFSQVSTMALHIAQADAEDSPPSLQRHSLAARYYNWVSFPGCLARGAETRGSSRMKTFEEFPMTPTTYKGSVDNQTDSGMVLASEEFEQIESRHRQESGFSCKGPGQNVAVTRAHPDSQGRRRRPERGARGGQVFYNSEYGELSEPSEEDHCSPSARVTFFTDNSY
Chain of c-Kit (P10721 26-976): as the sequence (P10721 26-976 D816H) above, with H791D counted along it

Nc1nc(Nc2ccc3c(c2)CC[C@@H](N2CCCC2)CC3)nn1-c1cc2c(nn1)-c1ccccc1CCC2 [Compound A, 1-(6,7-dihydro-5H-benzo[6,7]cyclohepta[1,2-c]pyridazine-3-yl)-N^3-(7-(S)-(pyrrolidin-1-yl)-6,7,8,9-tetrahydro-5H-benzo[7]annulene-2-yl)-1H-1,2,4-triazole-3,5-diamine]
therapeutic window ([1]; investigated Ba/F3 cell lines, 48 hours): 0.5 to 3 µM
induction of apoptosis at higher doses ([1]; ≧3 μM, all cell lines regardless of FLT3 status): massive induction of apoptosis
IC50 (Abl(H396P) [2]): 22 nM
IC50 (Tyro3): 413 nM
IC50 (Abl(Q252H)): 16 nM
IC50 (Abl (T315I) [3]): 4 nM
Kd (Flt4): 460 nM
Kd (Abl(H396P) [4]): 57 nM
Kd (Stk10): 9.2 nM
Kd (c-Kit (D816H)): 63 nM
Kd (Abl (T315I) [5]): 10 nM
Kd (Flt1): 400 nM
Kd (Ret (V804M)): 72 nM
Kd (Yes): 810 nM
Kd (c-Kit): 104 nM
Kd (Abl): 52 nM
